Experimental data reported in patent US10738028B2, “Spiro three-membered ring, spiro five-membered ring peptide deformylase inhibitor and use thereof in antibacteria and anti-tumor” (priority 2016, dated 2020).

How the values were obtained:
Type in all cases: cell-based
[1] = tested on: MGC-803 gastric cancer cell line; assay: CCK-8 proliferation inhibition; conditions: Homo sapiens, MGC-803, 72 h, concentration of 30 μM
In short: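 Proliferation was measured with 1:10 diluted CCK-8 after a 72-hour incubation with the inhibitors at various final concentrations, using 1‰ DMSO as the control. Cells were plated at 2000 per well. Culture media contained 10% newborn bovine serum: 1640 for Jurkat and MGC-803, F12 for PC3, DMEM high glucose for MCF-7.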

[2] = tested on: A549 lung cancer cell line; assay: CCK-8 proliferation inhibition; conditions: concentration of 30 μM
In short: (§1)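 Plating at 2000 cells/well, then incubation overnight at 37° C. Next, a range of compound concentrations for 72 hours (control 1‰ DMSO). Finally, medium decanted and CCK-8 diluted 1:10 added.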

[3] = tested on: BEL-7402 liver cancer cell line; assay: CCK-8 proliferation inhibition; conditions: concentration of 30 μM
In short: as §1

[4] = tested on: HCT-116 colorectal cancer cell line; assay: CCK-8 proliferation inhibition; conditions: concentration of 30 μM, 72 hours, CCK-8
In short: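 Cells were plated overnight at 2000 cells/well, then compound in culture medium was added at a range of final concentrations. After 72 hours in a CO2 incubator, medium was replaced with 1:10 CCK-8 solution for the read-out.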

[5] = tested on: Enterococcus faecalis (EFA); assay: MIC, two-fold agar dilution (CLSI), clinical isolates
In short: (§2)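 MIC values come from two-fold agar dilution run per CLSI antimicrobial susceptibility testing procedure.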

[6] = tested on: Escherichia coli (including ESBLs, non-ESBLs); assay: as above
In short: as §2

[7] = tested on: Enterococcus faecium (EFM); assay: as above
In short: as §2

[8] = tested on: methicillin-sensitive Staphylococcus epidermidis (MSSE); assay: as above
In short: as §2

[9] = tested on: Moraxella catarrhalis (BCA); assay: as above
In short: as §2

[10] = tested on: Streptococcus pneoumoniae (SPN); assay: as above
In short: as §2

[11] = tested on: methicillin-resistant Staphylococcus epidermidis (MRSE); assay: as above
In short: as §2

[12] = tested on: methicillin-sensitive Staphylococcus aureus (MSSA); assay: as above
In short: as §2

[13] = tested on: methicillin-resistant Staphylococcus aureus (MRSA); assay: as above
In short: as §2

CCCC[C@H](CC(=O)NO)C(=O)N1CC2(CC2)C[C@H]1C(=O)Nc1ccc(F)cn1 [Example 46, (S)—N-(5-fluoropyridin-2-yl)-5-((R)-2-(2-(hydroxyamino)-2-oxoethyl)hexanoyl)-5-spiro[2.4]heptane-6-carboxamide]
4 µg/mL: Anti-bacterial activity (MIC), strain EFA 15-9 ([5]; clinical isolate EFA 15-9)
1 µg/mL: Anti-bacterial activity (MIC), strain ECO+ 15-4 ([6]; clinical isolate ECO+ 15-4) | Anti-bacterial activity (MIC), strain EFM 15-6 ([7]; clinical isolate EFM 15-6) | Anti-bacterial activity (MIC), strain MSSE 15-3 ([8]; clinical isolate MSSE 15-3) | Anti-bacterial activity (MIC), strain MSSE 15-4 ([8]; clinical isolate MSSE 15-4) | Anti-bacterial activity (MIC), strain MSSE 15-5 ([8]; clinical isolate MSSE 15-5) | Anti-bacterial activity (MIC), strain MSSE 15-6 ([8]; clinical isolate MSSE 15-6) | Anti-bacterial activity (MIC), strain BCA 14-1 ([9]; clinical isolate BCA 14-1) | Anti-bacterial activity (MIC), strain BCA 14-4 ([9]; clinical isolate BCA 14-4) | Anti-bacterial activity (MIC), strain BCA 14-7 ([9]; clinical isolate BCA 14-7) | Anti-bacterial activity (MIC), strain BCA 14-8 ([9]; clinical isolate BCA 14-8) | Anti-bacterial activity (MIC), strain MRSE 15-1 ([11]; clinical isolate MRSE 15-1) | Anti-bacterial activity (MIC), strain MRSE 15-2 ([11]; clinical isolate MRSE 15-2) | Anti-bacterial activity (MIC), strain MRSE 15-3 ([11]; clinical isolate MRSE 15-3) | Anti-bacterial activity (MIC), strain MRSE 15-7 ([11]; clinical isolate MRSE 15-7) | Anti-bacterial activity (MIC), strain MSSA 15-4 ([12]; clinical isolate MSSA 15-4) | Anti-bacterial activity (MIC), strain MSSA 15-5 ([12]; clinical isolate MSSA 15-5) | Anti-bacterial activity (MIC), strain MRSA 15-2 ([13]; clinical isolate MRSA 15-2) | Anti-bacterial activity (MIC), strain MRSA 15-3 ([13]; clinical isolate MRSA 15-3) | Anti-bacterial activity (MIC), strain MRSA 15-4 ([13]; clinical isolate MRSA 15-4)
48%: inhibition at 30 µM [1]
70%: Inhibition of proliferation, Liver cancer BEL-7402 ([3]; 72 hours, 30 µM)
0.5 µg/mL: Anti-bacterial activity (MIC), strain EFM 15-5 ([7]; clinical isolate EFM 15-5) | Anti-bacterial activity (MIC), strain BCA 14-5 ([9]; clinical isolate BCA 14-5) | Anti-bacterial activity (MIC), strain BCA 14-6 ([9]; clinical isolate BCA 14-6) | Anti-bacterial activity (MIC), strain BCA 14-10 ([9]; clinical isolate BCA 14-10) | Anti-bacterial activity (MIC), strain SPN 16-2 ([10]; clinical isolate SPN 16-2) | Anti-bacterial activity (MIC), strain SPN 16-4 ([10]; clinical isolate SPN 16-4)
32 µg/mL: Anti-bacterial activity (MIC), strain ECO+ 15-1 ([6]; clinical isolate ECO+ 15-1)
> 32 µg/mL: Anti-bacterial activity (MIC), strain EFA 15-1 ([5]; clinical isolate EFA 15-1) | Anti-bacterial activity (MIC), strain EFA 15-2 ([5]; clinical isolate EFA 15-2) | Anti-bacterial activity (MIC), strain EFA 15-3 ([5]; clinical isolate EFA 15-3) | Anti-bacterial activity (MIC), strain EFA 15-4 ([5]; clinical isolate EFA 15-4) | Anti-bacterial activity (MIC), strain EFA 15-5 ([5]; clinical isolate EFA 15-5) | Anti-bacterial activity (MIC), strain EFA 15-6 ([5]; clinical isolate EFA 15-6) | Anti-bacterial activity (MIC), strain ECO+ 15-2 ([6]; clinical isolate ECO+ 15-2) | Anti-bacterial activity (MIC), strain ECO+ 15-3 ([6]; clinical isolate ECO+ 15-3) | Anti-bacterial activity (MIC), strain ECO− 15-1 ([6]; clinical isolate ECO− 15-1) | Anti-bacterial activity (MIC), strain ECO− 15-2 ([6]; clinical isolate ECO− 15-2) | Anti-bacterial activity (MIC), strain ECO− 15-3 ([6]; clinical isolate ECO− 15-3) | Anti-bacterial activity (MIC), strain ECO− 15-4 ([6]; clinical isolate ECO− 15-4) | Anti-bacterial activity (MIC), strain EFM 15-1 ([7]; clinical isolate EFM 15-1) | Anti-bacterial activity (MIC), strain EFM 15-2 ([7]; clinical isolate EFM 15-2) | Anti-bacterial activity (MIC), strain EFM 15-3 ([7]; clinical isolate EFM 15-3) | Anti-bacterial activity (MIC), strain EFM 15-4 ([7]; clinical isolate EFM 15-4) | Anti-bacterial activity (MIC), strain MSSA 15-6 ([12]; clinical isolate MSSA 15-6)
> 50%: inhibition at 30 µM ([2]; Homo sapiens, A549, 72 h) | inhibition at 30 µM ([3]; Homo sapiens, Bel-7402, 72 h) | inhibition at 30 µM ([4]; Homo sapiens, HCT-116, 72 h, read-out: HCT116 inhibition rate/%)
60%: Inhibition of proliferation, Lung cancer A549 ([2]; 72 hours, 30 µM)
0.25 µg/mL: Anti-bacterial activity (MIC), strain MSSA 15-3 ([12]; clinical isolate MSSA 15-3) | Anti-bacterial activity (MIC), strain MRSA 15-1 ([13]; clinical isolate MRSA 15-1)
58%: HCT116 inhibition rate/% ([4]; 30 µM)
